Experimental data: patent US20240228506A1, “RIPK1 INHIBITORS AND METHODS OF USE” (Merck Sharp & Dohme LLC, priority 2021, published 2024)

The compounds below were run against T1, GST-RIPK1 (recombinant GST-RIPK1 kinase domain (residues 1-327)) (Homo sapiens, UniProt Q13546) (assay: RIPK1-ADP-Glo enzymatic assay). Details: 25 nM GST-RIPK1, 300 μM ATP, 3 μM dephosphorylated-MBP; 30 minutes pre-incubation, 150 minutes reaction; ten-point titration.
T1 construct: recombinant GST-RIPK1 kinase domain (residues 1-327) enzyme; made in house; host or cells: baculovirus-transfected Sf21 insect cells
T1 sequence (Q13546 1-327): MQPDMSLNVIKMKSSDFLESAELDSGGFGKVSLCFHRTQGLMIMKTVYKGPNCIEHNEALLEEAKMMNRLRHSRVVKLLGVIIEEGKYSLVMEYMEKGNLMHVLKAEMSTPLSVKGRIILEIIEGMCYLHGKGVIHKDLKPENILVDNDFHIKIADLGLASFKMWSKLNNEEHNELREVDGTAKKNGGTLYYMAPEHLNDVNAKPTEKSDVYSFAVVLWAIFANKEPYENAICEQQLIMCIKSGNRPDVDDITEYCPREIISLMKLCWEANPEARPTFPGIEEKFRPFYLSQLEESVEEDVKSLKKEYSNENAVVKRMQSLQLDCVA
Type: biochemical
Outline: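 Ten-point 1:3 titrations from 100000 nM, 1% DMSO, were preincubated 30 min with 25 nM GST-RIPK1 (1-327) before starting with 300 μM ATP plus 3 μM dephosphorylated MBP; 150 min reaction. ADP-Glo luminescence measured ATP-to-ADP conversion; EC50 by four-parameter sigmoidal regression.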

Row | SMILES | IC50 [nM]
1 | CCCC12CC(C(=O)N3C[C@@H]4C[C@H]3c3cncc(C#N)c3O4)(C1)C2 [Compound 1-105, (2S,5S)-4-(3-propylbicyclo[1.1.1]pentane-1-carbonyl)-2,3,4,5-tetrahydro-2,5-methanopyrido[3,4-f][1,4]oxazepine-9-carbonitrile] | 92
2 | N#Cc1cncc2c1O[C@H]1C[C@@H]2N(C(=O)C23CCC(CO2)C3)C1 [Compound 1-108, (2S,5S)-4-(2-oxabicyclo[2.2.1]heptane-1-carbonyl)-2,3,4,5-tetrahydro-2,5-methanopyrido[3,4-f][1,4]oxazepine-9-carbonitrile] | 269
3 | CN1CC2CC1(C(=O)N1C[C@@H]3C[C@H]1c1cncc(C#N)c1O3)C2 [Compound 1-109, (2S,5S)-4-(2-methyl-2-azabicyclo[2.1.1]hexane-1-carbonyl)-2,3,4,5-tetrahydro-2,5-methanopyrido[3,4-f][1,4]oxazepine-9-carbonitrile] | 241
4 | N#Cc1cncc2c1O[C@H]1C[C@@H]2N(C(=O)C2(C#N)CCC2)C1 [Compound 1-110, (2S,5S)-4-(1-cyanocyclobutane-1-carbonyl)-2,3,4,5-tetrahydro-2,5-methanopyrido[3,4-f][1,4]oxazepine-9-carbonitrile] | 129
5 | N#Cc1cncc2c1O[C@H]1C[C@@H]2N(C(=O)C2(C#N)CCCC2)C1 [Compound 1-111, (2S,5S)-4-(1-cyanocyclopentane-1-carbonyl)-2,3,4,5-tetrahydro-2,5-methanopyrido[3,4-f][1,4]oxazepine-9-carbonitrile] | 184
6 | CC(C)(C(=O)N1C[C@@H]2C[C@H]1c1cncc(F)c1O2)C(F)F [Compound 2-1, 3,3-Difluoro-1-((2S,5S)-9-fluoro-2,3-dihydro-2,5-methanopyrido[3,4-f][1,4]oxazepin-4(5H)-yl)-2,2-dimethylpropan-1-one] | 184
7 | CC(C)(C(=O)N1C[C@@H]2C[C@H]1c1cncc(Cl)c1O2)C(F)F [Compound 2-2, 1-((2S,5S)-9-Chloro-2,3-dihydro-2,5-methanopyrido[3,4-f][1,4]oxazepin-4(5H)-yl)-3,3-difluoro-2,2-dimethylpropan-1-one] | 139
8 | O=C(N1C[C@@H]2C[C@H]1c1cncc(Cl)c1O2)C12CCC(F)(CC1)C2 [Compound 2-3, ((2S,5S)-9-Chloro-2,3-dihydro-2,5-methanopyrido[3,4-f][1,4]oxazepin-4(5H)-yl)(4-fluorobicyclo[2.2.1]heptan-1-yl)methanone] | 8
9 | O=C(N1C[C@@H]2C[C@H]1c1cncc(Cl)c1O2)C12CCC(C(F)(F)F)(CC1)C2 [Compound 2-4, [(2S,5S)-9-chloro-2,3-dihydro-2,5-methanopyrido[3,4-f][1,4]oxazepin-4(5H)-yl][4-(trifluoromethyl)bicyclo [2.2.1]heptan-1-yl]methanone] | 10
10 | CC(F)(F)C(C)(C)C(=O)N1C[C@@H]2C[C@H]1c1cncc(Cl)c1O2 [Compound 2-5, 1-[(2S,5S)-9-chloro-2,3-dihydro-2,5-methanopyrido[3,4-f][1,4]oxazepin-4(5H)-yl]-3,3-difluoro-2,2-dimethylbutan-1-one] | 18
11 | CC(C)(C(=O)N1C[C@@H]2C[C@H]1c1cncc(Cl)c1O2)C1CC1 [Compound 2-6] | 24
12 | O=C(N1C[C@@H]2C[C@H]1c1cncc(F)c1O2)C12CCC(F)(CC1)C2 [Compound 2-7, (4-fluorobicyclo[2.2.1]heptan-1-yl)[(2S,5S)-9-fluoro-2,3-dihydro-2,5-methanopyrido[3,4-f][1,4]oxazepin-4(5H)-yl]methanone] | 26
13 | CC(C)(C)C(=O)N1C[C@@H]2C[C@H]1c1cncc(Br)c1O2 [Compound 2-8, 1-((2S,5S)-9-bromo-2,3-dihydro-2,5-methanopyrido[3,4-f][1,4]oxazepin-4(5H)-yl)-2,2-dimethylpropan-1-one] | 394
14 | CCC(C)(C)C(=O)N1C[C@@H]2C[C@H]1c1cncc(Cl)c1O2 [Compound 2-9, 1-((2S,5S)-9-chloro-2,3-dihydro-2,5-methanopyrido[3,4-f][1,4]oxazepin-4(5H)-yl)-2,2-dimethylbutan-1-one] | 41
15 | CC1(C(=O)N2C[C@@H]3C[C@H]2c2cncc(Cl)c2O3)CCC1 [Compound 2-10, ((2S,5S)-9-chloro-2,3-dihydro-2,5-methanopyrido[3,4-f][1,4]oxazepin-4(5H)-yl)(1-methylcyclobutyl)methanone] | 227
16 | CC(F)(F)C1(C(=O)N2C[C@@H]3C[C@H]2c2cncc(Cl)c2O3)CCC1 [Compound 2-11, ((2S,5S)-9-chloro-2,3-dihydro-2,5-methanopyrido[3,4-f][1,4]oxazepin-4(5H)-yl)(1-(1,1-difluoroethyl)cyclobutyl) methanone] | 57

Row | SMILES | IC50 [nM]
17 | O=C(N1C[C@@H]2C[C@H]1c1cncc(Cl)c1O2)C1(C(F)F)CCC1 [Compound 2-12, ((2S,5S)-9-chloro-2,3-dihydro-2,5-methanopyrido[3,4-f][1,4]oxazepin-4(5H)-yl)(1-(difluoromethyl)cyclobutyl) methanone] | 124
18 | Cc1cncc2c1O[C@H]1C[C@@H]2N(C(=O)C(C)(C)C)C1 [Compound 2-13, 2,2-dimethyl-1-((2S,5S)-9-methyl-2,3-dihydro-2,5-methanopyrido[3,4-f][1,4]oxazepin-4(5H)-yl)propan-1-one] | 1100
19 | O=C(N1C[C@@H]2C[C@H]1c1cncc(F)c1O2)C12CCC(C(F)(F)F)(CC1)C2 [Compound 2-14, ((2S,5S)-9-fluoro-2,3-dihydro-2,5-methanopyrido[3,4-f][1,4]oxazepin-4(5H)-yl)(4-(trifluoromethyl)bicyclo [2.2.1]heptan-1-yl)methanone] | 20
20 | O=C(N1C[C@@H]2C[C@H]1c1cncc(F)c1O2)C12CCC(F)(CC1)CC2 [Compound 2-15, ((2S,5S)-9-fluoro-2,3-dihydro-2,5-methanopyrido[3,4-f][1,4]oxazepin-4(5H)-yl)(4-fluorobicyclo[2.2.2]octan-1-yl)methanone] | 81
21 | CC(C)(C(=O)N1C[C@@H]2C[C@H]1c1cncc(F)c1O2)C1CC1 [Compound 2-16, 2-cyclopropyl-1-((2S,5S)-9-fluoro-2,3-dihydro-2,5-methanopyrido[3,4-f][1,4]oxazepin-4(5H)-yl)-2-methylpropan-1-one] | 74
22 | C#Cc1cncc2c1O[C@H]1C[C@@H]2N(C(=O)C(C)(C)C)C1 [Compound 2-17, 1-((2S,5S)-9-Ethynyl-2,3-dihydro-2,5-methanopyrido[3,4-f][1,4]oxazepin-4(5H)-yl)-2,2-dimethylpropan-1-one] | 50
23 | CC(C)(C)C(=O)N1C[C@@H]2C[C@H]1c1cncc(C#Cc3ccccc3)c1O2 [Compound 2-20, 2,2-Dimethyl-1-((2S,5S)-9-(phenylethynyl)-2,3-dihydro-2,5-methanopyrido[3,4-f][1,4]oxazepin-4(5H)-yl)propan-1-one] | 72
24 | O=C(N1C[C@@H]2C[C@H]1c1cncc(F)c1O2)C12CCC(CC1)C2 [Compound 2-21, bicyclo[2.2.1]heptan-1-yl((2S,5S)-9-fluoro-2,3-dihydro-2,5-methanopyrido[3,4-f][1,4]oxazepin-4(5H)-yl)methanone] | 37
25 | CC(F)(F)C(C)(C)C(=O)N1C[C@@H]2C[C@H]1c1cncc(F)c1O2 [Compound 2-22, 3,3-difluoro-1-((2S,5S)-9-fluoro-2,3-dihydro-2,5-methanopyrido[3,4-f][1,4]oxazepin-4(5H)-yl)-2,2-dimethylbutan-1-one] | 67
26 | CC1(C(=O)N2C[C@@H]3C[C@H]2c2cncc(F)c2O3)CCCC1 [Compound 2-23, ((2S,5S)-9-fluoro-2,3-dihydro-2,5-methanopyrido[3,4-f][1,4]oxazepin-4(5H)-yl)(1-methylcyclopentyl) methanone] | 74
27 | N#CC12CCC(C(=O)N3C[C@@H]4C[C@H]3c3cncc(F)c3O4)(C1)C2 [Compound 2-24, 4-((2S,5S)-9-fluoro-2,3,4,5-tetrahydro-2,5-methanopyrido[3,4-f][1,4]oxazepine-4-carbonyl)bicyclo[2.1.1] hexane-1-carbonitrile] | 111
28 | CC1(C(=O)N2C[C@@H]3C[C@H]2c2cncc(Cl)c2O3)CCCC1 [Compound 2-25, ((2S,5S)-9-chloro-2,3-dihydro-2,5-methanopyrido[3,4-f][1,4]oxazepin-4(5H)-yl)(1-methylcyclopentyl) methanone] | 79
29 | N#CC12CCC(C(=O)N3C[C@@H]4C[C@H]3c3cncc(Cl)c3O4)(C1)C2 [Compound 2-26, 4-((2S,5S)-9-chloro-2,3,4,5-tetrahydro-2,5-methanopyrido[3,4-f][1,4]oxazepine-4-carbonyl)bicyclo[2.1.1] hexane-1-carbonitrile] | 87
30 | Cc1ncc2c(c1F)O[C@H]1C[C@@H]2N(C(=O)C23CCC(C(F)(F)F)(CC2)C3)C1 [Compound 2-27, ((2S,5S)-9-Fluoro-8-methyl-2,3-dihydro-2,5-methanopyrido[3,4-f][1,4]oxazepin-4(5H)-yl)(4-(trifluoromethyl)bicyclo[2.2.1]heptan-1-yl)methanone] | 47
31 | Cc1ncc2c(c1F)O[C@H]1C[C@@H]2N(C(=O)C23CCC(F)(CC2)C3)C1 [Compound 2-28, ((2S,5S)-9-fluoro-8-methyl-2,3-dihydro-2,5-methanopyrido[3,4-f][1,4]oxazepin-4(5H)-yl)(4-fluorobicyclo[2.2.1]heptan-1-yl)methanone] | 59
